Here are results for 2 molecules from patent US20070167411A1, “Compositions for treating angina” (Medicure International Inc., priority 2003, published 2007).

For series [1], the system named is isolated non-ischemic working rat heart. As to the kind of experiment: Glucose oxidation rates in isolated working rat heart perfusion ([14C] glucose, 14CO2 production). The following applies: 60 minutes aerobic perfusion, compound added about 5 minutes into aerobic period, saline control 1580±183. On the procedure:
The goal was to determine if […] altered glucose oxidation rates or cardiac function in the isolated non-ischemic working rat heart model. This was achieved by subjecting rat hearts to 60 minutes of aerobic perfusion. […] was added about 5 minutes into the aerobic period and the effects of […] on glucose metabolism was determined during the aerobic period. […] Rat hearts were cannulated for isolated working heart perfusions as described previously (Lopaschuk et al., J Pharmacol Exp Ther. 1993 Jan; 264(1):135-44). In brief, male Sprague-Dawley rats (0.3-0.35 kg) were anesthetized with pentobarbital sodium (60 mg/kg i.p.). The hearts were quickly excised, the aorta was cannulated, and a retrograde perfusion at 37° C. was initiated at a hydrostatic pressure of 60 mm Hg. Hearts were trimmed of excess tissue, and the pulmonary artery and the opening to the left atrium were then cannulated. […] Spontaneously beating hearts were used in all perfusions, heart rate and aortic pressure were measured with a Biopac Systems Inc. blood pressure transducer connected to the aortic outflow line. Cardiac output and aortic flow were measured with Transonic […] ultrasonic flow probes in the preload and afterload lines, respectively. Coronary flow was calculated as the difference between cardiac output and aortic flow. […]

For series [2] the following is noted: water, alcohol, and ether; cited from earlier work.

In turn, `O=C(O)C(Cl)Cl` [DCA, dichloroacetic acid, reference compound] yielded a glucose oxidation rates in series [1] of 2422±140.

In series [1], `Cc1ncc(COP(=O)(O)O)c(C=O)c1O` [Example P5P, 3-hydroxy-2-methyl-5-[(phosphonooxy)methyl]-4-pyridine-carboxaldehyde] came in with a glucose oxidation rates of 2253±230. For the same molecule, in series [2], the solubility entry was “essentially insoluble in water, alcohol, and ether”.
